From US20040186273A1 (V.I. Technologies, Inc., priority 2000, published 2004)

Columns and labels:
[1] = target: prion from scrapie infected hamster brain (PrPsc) (Mesocricetus auratus, UniProt P04273)
[2] = target: prion from infected hamster brain spiked into plasma (Mesocricetus auratus, UniProt P04273)
[3] = target: PrPc from normal brain homogenate (Mesocricetus auratus, UniProt P04273)
PrPc from normal brain homogenate, sequence (P04273 23-231 limits assumed): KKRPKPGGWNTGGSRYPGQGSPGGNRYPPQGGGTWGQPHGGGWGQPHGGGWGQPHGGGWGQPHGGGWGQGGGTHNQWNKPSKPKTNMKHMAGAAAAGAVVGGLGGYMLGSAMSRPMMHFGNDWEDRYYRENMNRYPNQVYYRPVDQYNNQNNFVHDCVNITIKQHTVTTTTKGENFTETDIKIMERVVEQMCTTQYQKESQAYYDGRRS

prion from scrapie infected hamster brain (PrPsc), sequence (P04273 23-231 limits assumed): as above
prion from infected hamster brain spiked into plasma, sequence (P04273 23-231 limits assumed): as above

Row | Substance | binding of prion to resin (prion signal in flow through) [1] | PrPc bound to resin (chemiluminescence signal, +3F4 vs -3F4) [3] | further results
1 | YVFNWY [Peptide 87] | bound all prion | – | –
2 | acetylated (dR)YHVYF [Peptide 83, reference compound] | – | – | binding of prion to resin (prion signal in flow through) [2]: bound all prion
3 | LLIWIP [Peptide 84] | – | not stable enough to resist the washing protocol | –
4 | WLYWIP [Peptide 85] | – | not stable enough to resist the washing protocol | –
5 | acetyl (dF)LLHPI [Peptide 76] | failed to bind all prion | – | –
6 | VFEYIK [Peptide 115] | – | strongest binders | –
7 | GFFFWW [Peptide 89] | bound all prion | – | –
8 | HHHPQT [Peptide 55] | let prion flow through | – | prion binding, dependence on copper [1]: appears to bind prion only in the absence of copper
9 | RWIISL [Peptide 113] | – | strongest binders | –
10 | acetyl (dF)LLHPI [Peptide 75, reference compound] | – | – | binding of prion to resin (prion signal in flow through) [2]: did not bind prion strongly enough to retain all detectable protein
11 | IQIWIF [Peptide 110] | bound to the column | – | binding of prion to resin (prion signal in flow through) [2]: bound all prion
12 | LRVIIS [Peptide 96] | – | much larger signal than the controls | –
13 | IFFWIK [Peptide 112] | – | strongest binders | –
14 | RYHVYF [Peptide 71] | bound all prion | – | –
15 | WLVWIA [Peptide 116] | – | strongest binders | –
